# In US20240376097A1, “BCL-2 Inhibitor” (BeiGene Ltd., priority 2020, published 2024):
# Where two headings read alike, the source gives them in different places.
# Legend:
# [1] = target: Recombinant human Bcl-2 protein (Homo sapiens (Human), UniProt P10415); assay: Bcl-2 TR-FRET Assay; format: binding
# Procedure, shortened: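 0.05 nM recombinant Bcl-2 preincubated 0.5 h at room temperature with 10-point compound dilutions (top final 1, 0.1, 0.02 or 0.01 uM) in pH 7.5 phosphate buffer. FITC-Bak peptide (0.5 nM) and anti-6His Tb cryptate then added for 1 h. TR-FRET read; IC50 from four-parameter logistic fit.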
# [2] = target: recombinant human Bcl-2-G101V protein (Homo sapiens (Human), UniProt P10415, G101V); assay: Bcl-2-G101V TR-FRET Assay; format: binding; settings: Bcl-2 G101V mutant, TR-FRET; read-out: Biochemical assay (IC50, nM) Bcl-2 G101V
# Procedure, shortened: (§1)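 TR-FRET read at excitation 337 nm with emission at 490 nm and 520 nm. Inhibition of Bcl-2-G101V binding to its ligand across increasing compound concentrations was calculated from the 490/520 nm fluorescence ratio, and IC50 values came from four-parameter logistic fits.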
# [3] = system: recombinant human Bcl-2-G101V protein; assay: Bcl-2-G101V TR-FRET Assay; format: binding; settings: ratio of biochemical IC50 Bcl-2 G101V / Bcl-2 WT
# Procedure, shortened: as §1
# [4] = system: BCL-2 G101V knock-in cell line H96 (derive from RS4;11); assay: Bcl 2-G101V Knock-In RS4;11 Cell Proliferation Assay; format: cell-based; settings: Homo sapiens, RS4;11 Bcl-2 G101V knock-in clone H96, 48 hrs, CellTiter-GLO, read-out: Cellular proliferation assay (IC50, nM) RS4
# Procedure, shortened: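 H96, a CRISPR-generated RS4;11 clone carrying BCL2-G101V knock-in (WES/RNA-seq validated), seeded 50,000 per well and exposed 48 h at 37 °C to 10-point dilutions topping at 1 or 10 μM. Viability by CellTiter-Glo luminescence; mean IC50.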
# [5] = system: RS4;11 (BCL-2 dependent acute lymphoblastic leukemia cell line); assay: RS4;11 Cell Proliferation Assay; format: cell-based; settings: Homo sapiens, RS4-11, RS4;11 cells, read-out: Cellular proliferation assay (IC50, nM) RS4
# Procedure, shortened: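 RS4;11 cells, 50,000 per well in RPMI-1640 with 10% FBS, treated 48 h at 37 °C with a 10-point dilution series topping at 1 μM. Viability read by CellTiter-Glo ATP luminescence; mean IC50 reported.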
# [6] = target: recombinant human Bcl-2 D103Y protein (Homo sapiens (Human), UniProt P10415, D103Y); assay: Bcl-2-D103Y Biochemical Assay (TR-FRET); format: binding; settings: for IC50: TR-FRET, FITC labeled Bak peptide; for Ratio of Bcl-2 D103Y/Bcl-2 WT: ratio of IC50
# Procedure, shortened: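 Recombinant human Bcl-2 D103Y binding to its ligand measured by TR-FRET (ex 337 nm, em 490/520 nm) with increasing compound concentrations. Percent inhibition from the 490/520 nm ratio; IC50 from four-parameter logistic fit.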
# [7] = Bcl-2 wild type, TR-FRET, read-out: Biochemical assay (IC50, nM) Bcl-2 WT
# [8] = wild type Bcl-2, unit inferred, read-out: Bcl-2 WT
Compound,"IC50 [1, 7]","IC50 [1, 8]",IC50 [2],Ratio of Bcl-2 G101V/WT [3],IC50 [4],IC50 [5],IC50 [6],Ratio of Bcl-2 D103Y/Bcl-2 WT [6]
"COc1cc(CN2CCN(C3CC4(C3)CN(c3ccc(C(=O)NS(=O)(=O)c5ccc(NC[C@H]6CC[C@](C)(O)CC6)c([N+](=O)[O-])c5)c(Oc5cnc6[nH]ccc6c5)c3)C4)[C@H](c3ccccc3C(C)C)C2)cc2c1OCCC2 [Example 318, 2-((1H-pyrrolo[2,3-b]pyridin-5-yl)oxy)-N-((4-((((1r,4r)-4-hydroxy-4-methylcyclohexyl)methyl)amino)-3-nitrophenyl)sulfonyl)-4-(6-((R)-2-(2-isopropylphenyl)-4-((8-methoxychroman-6-yl)methyl)piperazin-1-yl)-2-azaspiro[3.3]heptan-2-yl)benzamide]",0.056 nM,0.056 nM,0.16 nM,2.9,0.31 nM,0.2 nM,0.052 nM,0.9
"COc1cc(CN2CCN(C3CC4(CCN(c5ccc(C(=O)NS(=O)(=O)c6ccc(NC[C@H]7CC[C@](C)(O)CC7)c([N+](=O)[O-])c6)c(Oc6cnc7[nH]ccc7c6)c5)CC4)C3)C(c3ccccc3C(C)C)C2)ccc1F (some centres unmarked) [Example 121, 2-((1H-pyrrolo[2,3-b]pyridin-5-yl)oxy)-4-(2-(4-(4-fluoro-3-methoxybenzyl)-2-(2-isopropylphenyl)piperazin-1-yl)-7-azaspiro[3.5]nonan-7-yl)-N-((4-((((1r,4r)-4-hydroxy-4-methylcyclohexyl)methyl)amino)-3-nitrophenyl)sulfonyl)benzamide]",0.28 nM,0.28 nM,1.1 nM,3.8,1.13 nM,0.24 nM,0.42 nM,1.5
"[2H]C([2H])([2H])Oc1ccc(CN2CCN(C3CC4(C3)CN(c3ccc(C(=O)NS(=O)(=O)c5ccc(NC[C@H]6CC[C@](C)(O)CC6)c([N+](=O)[O-])c5)c(Oc5cnc6[nH]cc(F)c6c5)c3)C4)[C@H](c3ccccc3C(C)C)C2)cc1OC([2H])([2H])[2H] [Example 197, 4-(6-((R)-4-(3,4-bis(methoxy-d3)benzyl)-2-(2-isopropylphenyl)piperazin-1-yl)-2-azaspiro[3.3]heptan-2-yl)-2-((3-fluoro-1H-pyrrolo[2,3-b]pyridin-5-yl)oxy)-N-((4-((((1r,4r)-4-hydroxy-4-methylcyclohexyl)methyl)amino)-3-nitrophenyl)sulfonyl)benzamide]",0.076 nM,0.076 nM,0.15 nM,1.9,0.29 nM,0.16 nM,0.089 nM,1.2
"COc1cc(CN2CCN(C3CC4(C3)CN(c3ccc(C(=O)NS(=O)(=O)c5ccc(NC[C@H]6CC[C@](C)(O)CC6)c([N+](=O)[O-])c5)c(Oc5cnc6[nH]cc(F)c6c5)c3)C4)[C@H](c3ccccc3C(C)C)C2)cc(C)c1OC [Example 231, 4-(6-((R)-4-(3,4-dimethoxy-5-methylbenzyl)-2-(2-isopropylphenyl)piperazin-1-yl)-2-azaspiro[3.3]heptan-2-yl)-2-((3-fluoro-1H-pyrrolo[2,3-b]pyridin-5-yl)oxy)-N-((4-((((1r,4r)-4-hydroxy-4-methylcyclohexyl)methyl)amino)-3-nitrophenyl)sulfonyl) benzamide]",0.27 nM,0.27 nM,0.35 nM,1.3,0.38 nM,0.12 nM,0.45 nM,1.7
"COc1cc(CN2CCN(C3CC4(C3)CN(c3ccc(C(=O)NS(=O)(=O)c5ccc(NC[C@H]6CC[C@](C)(O)CC6)c([N+](=O)[O-])c5)c(Oc5cnc6[nH]cc(F)c6c5)c3)C4)[C@H](c3ccccc3C(C)C)C2)cc2ccoc12 [Example 306, 2-((3-fluoro-1H-pyrrolo[2,3-b]pyridin-5-yl)oxy)-N-((4-((((1r,4r)-4-hydroxy-4-methylcyclohexyl)methyl)amino)-3-nitrophenyl)sulfonyl)-4-(6-((R)-2-(2-isopropylphenyl)-4-((7-methoxybenzofuran-5-yl)methyl)piperazin-1-yl)-2-azaspiro[3.3]heptan-2-yl)benzamide]",0.31 nM,0.31 nM,0.97 nM,3.1,0.15 nM,0.12 nM,0.31 nM,1.0
COc1cc(CN2CCN(C3CC4(CCN(c5ccc(C(=O)NS(=O)(=O)c6ccc(NC[C@H]7CC[C@](C)(O)CC7)c([N+](=O)[O-])c6)c(Oc6cnc7[nH]ccc7c6)c5)CC4)C3)C(c3ccccc3C(C)C)C2)cc(C)c1OC (some centres unmarked) [Example 158],0.27 nM,0.27 nM,0.75 nM,2.8,1.52 nM,0.322 nM,0.37 nM,1.3
"CC(C)c1ccccc1C1CN(Cc2ccc(S(C)(=O)=O)cc2)CCN1C1CC2(CCN(c3ccc(C(=O)NS(=O)(=O)c4ccc(NC[C@H]5CC[C@](C)(O)CC5)c([N+](=O)[O-])c4)c(Oc4cnc5[nH]ccc5c4)c3)CC2)C1 (some centres unmarked) [Example 82, 2-((1H-pyrrolo[2,3-b]pyridin-5-yl)oxy)-N-((4-((((1r,4r)-4-hydroxy-4-methylcyclohexyl)methyl)amino)-3-nitrophenyl)sulfonyl)-4-(2-(2-(2-isopropylphenyl)-4-(4-(methylsulfonyl)benzyl)piperazin-1-yl)-7-azaspiro[3.5]nonan-7-yl) benzamide]",0.031 nM,0.031 nM,0.29 nM,9.5,2.67 nM,0.42 nM,0.17 nM,5.6
"COc1ccc(CN2CCN(C3CC4(CCN(c5ccc(C(=O)NS(=O)(=O)c6ccc(NC[C@H]7CC[C@](C)(O)CC7)c([N+](=O)[O-])c6)c(Oc6cnc7[nH]cc(Cl)c7c6)c5)CC4)C3)[C@H](c3ccccc3C(C)C)C2)cc1OC [Example 174, 2-((3-chloro-1H-pyrrolo[2,3-b]pyridin-5-yl)oxy)-4-(2-((R)-4-(3,4-dimethoxybenzyl)-2-(2-isopropylphenyl)piperazin-1-yl)-7-azaspiro[3.5]nonan-7-yl)-N-((4-((((1r,4r)-4-hydroxy-4-methylcyclohexyl)methyl)amino)-3-nitrophenyl)sulfonyl)benzamide]",0.096 nM,0.096 nM,0.59 nM,6.1,0.49 nM,0.18 nM,0.14 nM,1.4
"COc1ccc(CN2CCN(C3CC4(CCN(c5ccc(C(=O)NS(=O)(=O)c6ccc(OCC7CCC(C)(O)CC7)c([N+](=O)[O-])c6)c(Oc6cnc7[nH]ccc7c6)c5)CC4)C3)[C@H](c3ccccc3C(C)C)C2)cc1 (stereo partly drawn) [Example 236, (R)-2-((1H-pyrrolo[2,3-b]pyridin-5-yl)oxy)-N-((4-((4-hydroxy-4-methylcyclohexyl)methoxy)-3-nitrophenyl)sulfonyl)-4-(2-(2-(2-isopropylphenyl)-4-(4-methoxybenzyl)piperazin-1-yl)-7-azaspiro[3.5]nonan-7-yl)benzamide]",0.16 nM,0.16 nM,0.56 nM,3.5,0.8 nM,0.16 nM,0.22 nM,1.3
"COc1cc(CN2CCN(C3CC4(C3)CN(c3ccc(C(=O)NS(=O)(=O)c5ccc(NC[C@H]6CC[C@](C)(O)CC6)c([N+](=O)[O-])c5)c(Oc5cnc6[nH]cc(F)c6c5)c3)C4)[C@H](c3ccccc3C(C)C)C2)ccc1C1COC1 [Example 345, 2-((3-fluoro-1H-pyrrolo[2,3-b]pyridin-5-yl)oxy)-N-((4-((((1r,4r)-4-hydroxy-4-methylcyclohexyl)methyl)amino)-3-nitrophenyl)sulfonyl)-4-(6-((R)-2-(2-isopropylphenyl)-4-(3-methoxy-4-(oxetan-3-yl)benzyl)piperazin-1-yl)-2-azaspiro[3.3]heptan-2-yl) benzamide]",0.16 nM,0.16 nM,0.38 nM,2.4,0.24 nM,0.14 nM,0.13 nM,0.8
